In ChEMBL document CHEMBL4041472, “Curacin E from the Brittle Star Ophiocoma scolopendrina” (J Nat Prod, 2016):
Active and inactive are the calls of the source. The calls are words filed in the database; no cut-off is given here.

How the values were obtained:
[1] = biological target: T1, Protein deacetylase HDAC6 (Mus musculus) (UniProt Q9Z2V5); experiment: Inhibition of mouse FLAG-tagged HDAC6 expressed in human 293T cells coexpressing HDA2 up to 50 uM using Ac-KGLGK(Ac)-MCA as substrate after 30 mins by fluorescence assay; type: cell-based
T1 sequence (whole entry): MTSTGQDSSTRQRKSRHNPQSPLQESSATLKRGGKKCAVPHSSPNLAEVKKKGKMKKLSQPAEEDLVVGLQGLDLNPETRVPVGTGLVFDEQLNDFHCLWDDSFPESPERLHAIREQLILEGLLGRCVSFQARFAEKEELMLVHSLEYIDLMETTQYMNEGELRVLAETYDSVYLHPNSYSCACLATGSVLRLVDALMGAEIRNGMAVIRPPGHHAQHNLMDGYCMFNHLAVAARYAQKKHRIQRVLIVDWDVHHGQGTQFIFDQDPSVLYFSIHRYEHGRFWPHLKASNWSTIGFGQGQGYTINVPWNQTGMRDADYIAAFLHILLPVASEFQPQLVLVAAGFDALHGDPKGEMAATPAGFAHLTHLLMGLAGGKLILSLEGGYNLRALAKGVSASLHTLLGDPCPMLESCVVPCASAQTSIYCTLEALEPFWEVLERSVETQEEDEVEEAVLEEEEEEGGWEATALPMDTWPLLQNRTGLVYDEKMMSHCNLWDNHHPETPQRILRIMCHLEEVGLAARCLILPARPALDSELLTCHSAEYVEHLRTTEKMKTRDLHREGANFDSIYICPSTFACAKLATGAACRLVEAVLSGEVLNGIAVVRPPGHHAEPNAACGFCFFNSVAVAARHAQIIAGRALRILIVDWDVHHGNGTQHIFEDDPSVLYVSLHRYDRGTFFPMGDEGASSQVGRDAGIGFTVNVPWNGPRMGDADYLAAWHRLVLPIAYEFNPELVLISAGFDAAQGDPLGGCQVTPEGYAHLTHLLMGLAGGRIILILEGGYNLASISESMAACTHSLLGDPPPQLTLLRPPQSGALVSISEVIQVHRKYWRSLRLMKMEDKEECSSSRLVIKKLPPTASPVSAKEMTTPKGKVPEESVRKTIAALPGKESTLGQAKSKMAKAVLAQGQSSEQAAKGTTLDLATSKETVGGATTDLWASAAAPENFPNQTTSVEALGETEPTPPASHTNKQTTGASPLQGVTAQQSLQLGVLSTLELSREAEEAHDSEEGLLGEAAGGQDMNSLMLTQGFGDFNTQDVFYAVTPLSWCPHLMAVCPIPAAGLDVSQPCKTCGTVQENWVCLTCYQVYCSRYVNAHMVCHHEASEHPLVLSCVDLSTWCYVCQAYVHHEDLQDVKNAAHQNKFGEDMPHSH

[2] = biological target: T2, NAD-dependent protein deacetylase sirtuin-1 (Homo sapiens) (UniProt Q96EB6); experiment: Inhibition of human SIRT1 expressed in Escherichia coli BL21(DE3) up to 50 uM using Ac-RHKK(Ac)-MCA as substrate after 60 mins in presence of NAD by fluorescence assay
T2 sequence (whole entry): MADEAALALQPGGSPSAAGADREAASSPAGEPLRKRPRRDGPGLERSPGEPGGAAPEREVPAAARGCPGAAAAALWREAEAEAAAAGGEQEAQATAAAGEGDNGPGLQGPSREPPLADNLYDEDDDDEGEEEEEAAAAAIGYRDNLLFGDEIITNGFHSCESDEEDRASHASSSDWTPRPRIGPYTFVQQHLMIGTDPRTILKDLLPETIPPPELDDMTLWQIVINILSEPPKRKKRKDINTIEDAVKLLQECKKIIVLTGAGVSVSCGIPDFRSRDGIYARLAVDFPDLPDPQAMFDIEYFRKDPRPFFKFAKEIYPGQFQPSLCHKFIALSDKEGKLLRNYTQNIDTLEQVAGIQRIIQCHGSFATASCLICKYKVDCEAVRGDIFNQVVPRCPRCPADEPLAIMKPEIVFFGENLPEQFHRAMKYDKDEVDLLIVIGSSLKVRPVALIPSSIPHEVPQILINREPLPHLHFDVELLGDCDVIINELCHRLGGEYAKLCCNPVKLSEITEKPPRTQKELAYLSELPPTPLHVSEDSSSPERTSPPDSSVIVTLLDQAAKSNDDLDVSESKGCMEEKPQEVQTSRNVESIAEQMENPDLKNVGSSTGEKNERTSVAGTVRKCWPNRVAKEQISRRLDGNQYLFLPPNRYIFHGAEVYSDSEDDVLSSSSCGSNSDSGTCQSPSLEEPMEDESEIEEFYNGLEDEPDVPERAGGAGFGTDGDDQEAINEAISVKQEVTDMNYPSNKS

[3] = biological target: Histone deacetylase 1 (Homo sapiens) (UniProt Q13547); experiment: Inhibition of human FLAG-tagged HDAC1 expressed in human 293T cells up to 50 uM using Ac-KGLGK(Ac)-MCA as substrate after 30 mins by fluorescence assay
[4] = system: P388; experiment: Cytotoxicity against mouse P388 cells assessed as reduction in cell viability at >= 20 nM after 96 hrs by MTT assay; type: functional, cell-based

Histone deacetylase 1 (Homo sapiens), sequence (Q13547 whole entry): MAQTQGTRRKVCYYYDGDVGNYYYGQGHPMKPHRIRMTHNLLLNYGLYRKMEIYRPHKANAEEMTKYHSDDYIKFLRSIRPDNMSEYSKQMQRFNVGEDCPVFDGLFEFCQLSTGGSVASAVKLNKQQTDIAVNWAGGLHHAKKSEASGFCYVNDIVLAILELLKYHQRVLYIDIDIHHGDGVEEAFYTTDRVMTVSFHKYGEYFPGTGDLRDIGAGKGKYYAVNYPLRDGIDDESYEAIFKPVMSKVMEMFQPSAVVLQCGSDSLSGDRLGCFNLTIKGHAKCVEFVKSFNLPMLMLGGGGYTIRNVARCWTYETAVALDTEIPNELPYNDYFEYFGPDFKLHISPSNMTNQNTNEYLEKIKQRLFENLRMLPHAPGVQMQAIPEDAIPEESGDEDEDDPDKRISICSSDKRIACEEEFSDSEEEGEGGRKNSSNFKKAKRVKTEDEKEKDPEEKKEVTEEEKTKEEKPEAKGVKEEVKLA

Compound: CCC(=O)CC(CC/C=C/C=C/CC/C=C\[C@@H]1CSC([C@@H]2C[C@@H]2C)=N1)OC (some centres undefined)
- inhibition [1]: inactive
- inhibition [2]: inactive
- inhibition [3]: inactive
- Activity [4]: Active
